Laboratory results: patent publication US11576979B2, “Pyrrolobenzodiazepine prodrugs and antibody conjugates thereof” (GENENTECH, INC., priority 2016, dated 2023)

Assays:
Igrov-1 = test: CellTiter-Glo toxicity, 4 days (Example 9); type: cell-based; settings: Homo sapiens, IGROV-1, 96 h, 4 days of drug incubation; Table 7A
Procedure, shortened: (§1)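 Cells were seeded in 384-well plates, dosed 24 h later and incubated with drug for 4 days. Viability was read as ATP luminescence by CellTiter-Glo and normalised to untreated controls. IC50 is the concentration giving 50% of maximum cell killing.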

UACC-257 = test: CellTiter-Glo toxicity, 4 days (Example 9); type: cell-based; settings: Homo sapiens, UACC-257, 96 h, 4 days of drug incubation; Table 7A
Procedure, shortened: as §1

SK-BR-3 = test: CellTiter-Glo toxicity, 3 days (Example 7); type: cell-based; settings: Homo sapiens, SK-BR-3, 72 h, read-out: SK-BR-3 IC50 (nM)
Experimental: The toxicity of PBD monomer disulfide prodrugs 1 to 4, PBD dimer disulfide prodrugs 1 and 4, PBD monomer control 1 and PBD dimer control 1 were evaluated against SK-BR-3 cell cultures. […] The HER2-positive breast cancer cell line, SK-BR-3, was obtained internally at Genentech after having been verified by sequence analysis. The cells were grown at 37 Celsius in DMEM+10% FBS supplemented with 2 mM L-glutamine for the duration of this assay. On the first day of the experiment, designated “Day −1”, SK-BR-3 cells were harvested from tissue culture flasks, counted, and then seeded into 96-well plates at a concentration of 7,500 cells per well. The next day, designated “Day 0”, cell culture media was removed from the cells and replaced with 100 uL of fresh media containing a serial dilution (1:3) of the compounds in Table 5 below. The plates were then returned to the 37 Celsius incubator and allowed to incubate for 3 days. On “Day 3” of the assay, the plates were removed from the incubator and allowed to equilibrate to room temperature before adding 100 uL of room-temperature CellTiter-Glo reagent (Promega). The plates were then agitated at 300 rpm for 10 minutes. The luminescence signal generated from this reaction was recorded on an Envision plate reader (Perkin-Elmer). The data were arranged in Excel (Microsoft) and graphed in Kaleidagraph (Synergy Software).

T-47D = test: Standard cell panel (Table 7B); type: cell-based; settings: Homo sapiens, T47D
From the text: (§2) PBD dimer control 1 and PBD dimer control 2 were further evaluated in standard cell panels against a number of cell lines.

BJAB = test: Standard cell panel (Table 7B); type: cell-based; settings: Homo sapiens
From the text: as §2

KPL-4 = test: Standard cell panel (Table 7B); type: cell-based; settings: KPL4
From the text: as §2

MES-SA = test: Standard cell panel (Table 7B); type: cell-based; settings: Homo sapiens
From the text: as §2

HCC1937 = test: Standard cell panel (Table 7B); type: cell-based; settings: Homo sapiens
From the text: as §2

SW 900 = test: Standard cell panel (Table 7B); type: cell-based; settings: Homo sapiens, SW900
From the text: as §2

NCI-H1781 = test: Standard cell panel (Table 7B); type: cell-based
From the text: as §2

MES-SA/Dx5 = test: Standard cell panel (Table 7B); type: cell-based; settings: Homo sapiens
From the text: as §2

HCC1569 X2 = test: Standard cell panel (Table 7B); type: cell-based; settings: Homo sapiens
From the text: as §2

KPL-4 Cell line = test: Cell viability, DTD-activated quinone prodrugs (Example 15); type: cell-based; settings: KPL4, read-out: IC50 Potency (nM)
Experimental: (§3) The toxicity of PBD dimer diaphorase prodrug 1, PBD monomer diaphorase prodrug 2, PBD dimer control 1 and PBD monomer control 1 were evaluated against KPL-4 and WSU cell lines for cell viability. The KPL-4 cell line is was a high DTD cell line characterized by NQO1 nRPKM of 839 and the WSU cell line was a low DTD cell line characterized by a NQO1 nRPKM of 1.36. The IC50 ratios are based on the prodrug IC50 value relative to the PBD dimer control.

WSU Cell line = test: as above; type: cell-based; settings: read-out: IC50 Potency (nM)
Experimental: as §3

[1] = tested on: double strand DNA Oligos 1 and 2; test: DNA oligo binding, LC/MS/UV; settings: 100 uM compound, 100 uM DNA, 1 hour, 37 C
Experimental: For DNA binding determination, the compounds were incubated at 100 μM with 100 μM double strand DNA Oligos 1 and 2 for 1 hour in 10 mM Bis-Tris, pH 7.1 at 37° C. The single strand DNA Oligos (5′-TATAGAATCTATA-3′ and 3′-ATATCTTAGATAT-5′) were synthesized at Genentech. The samples were analyzed by LC/MS/UV (210-450 nm) on Sciex TripleTOF 5600 on a Hypersil Gold C18 column (100×2.1, 1.9 Thermo Scientific). The column was eluted at 0.4 mL/min by a gradient of buffer A (50 mM hexafluoro-isopropanol and 15 mM diisopropylethylamine) to buffer B (50% A and 50% of 1:1 methanol:acetonitrile), 5% 0-0.5 min, 5-25% B 0.5-25 min, 25-95% B 25-40 min, and to 95% B 40-42 min. The % remaining was an average of the starting DNA oligos remaining in incubations (n=2). The products were characterized by LC/MS in a negative ESI ion mode.

## C=C1C[C@H]2C=Nc3cc(OCCCCCOc4cc5c(cc4OC)C(=O)N4CC(=C)C[C@H]4C=N5)c(OC)cc3C(=O)N2C1 [PBD dimer control 1]
Igrov-1
  IC50: 0.061 nM
UACC-257
  IC50: 0.95 nM
SK-BR-3
  IC50: 0.144 nM
T-47D
  IC50: 0.032 nM
BJAB
  IC50: 0.015 nM
KPL-4
  IC50: 0.053 nM
MES-SA
  IC50: 0.028 nM
HCC1937
  IC50: 0.15 nM
SW 900
  IC50: 0.078 nM
NCI-H1781
  IC50: 0.011 nM
MES-SA/Dx5
  IC50: 0.56 nM
HCC1569 X2
  IC50: 0.097 nM
KPL-4 Cell line
  IC50: 2.09 nM
WSU Cell line
  IC50: 0.2 nM
[1]
  % DNA oligo remaining: <1%
